In patent publication US11149031B2, “Substituted N-(3-fluoropropyl)-pyrrolidine compounds, processes for their preparation and therapeutic uses thereof” (SANOFI, priority 2016, dated 2021):

Assays:
[1] = molecular target: His6-ERα298-554 D538G mutant (ERα ligand-binding domain) (Homo sapiens (Human), UniProt P03372, D538G); assay: Test A: biochemical antagonist activity, LanthaScreen TR-FRET ERα coactivator assay, D538G mutant; conditions: protocol with 3 nM estradiol; read-out: Antagonism D538G IC50
Sequence of His6-ERα298-554 D538G mutant (ERα ligand-binding domain) (P03372 298-554 D538G): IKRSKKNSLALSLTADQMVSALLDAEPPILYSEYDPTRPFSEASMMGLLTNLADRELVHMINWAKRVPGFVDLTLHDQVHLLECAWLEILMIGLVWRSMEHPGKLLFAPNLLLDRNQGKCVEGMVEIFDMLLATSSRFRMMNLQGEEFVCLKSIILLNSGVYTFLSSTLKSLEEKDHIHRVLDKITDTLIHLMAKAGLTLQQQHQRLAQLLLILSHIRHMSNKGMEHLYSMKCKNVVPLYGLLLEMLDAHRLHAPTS
Description: (§1) Test A: Biochemical Antagonist Activity on Wild Type (WT) and Mutants
(§2) Estrogen Receptors Test A involves measuring the in vitro antagonist activity of the compounds of the invention on estrogen receptors.
(§3) The measurements of the antagonist activities were made using an estrogen receptor coactivator assay as described hereunder.
(§4) Antagonistic potency of compounds was evaluated using LanthaScreen® TR-FRET ERα Coactivator Assay (ThermoFisher) with modifications. […] The assay works in a homogeneous mix-and-read format. In a typical experiment, a 4 μL mixture of 0.5 nM His6-ERα298-554, 0.5 nM Tb-labeled His6 antibody, 250 nM PGC1a peptide, and 3 nM estradiol (or 10 nM estradiol) in 100 mM potassium phosphate, pH 7.4, 0.01% Tween-20, 0.02% NaN3, 5 mM DTT, was added to 40 nL test compound in DMSO and incubated overnight at room temperature. The TR-FRET 520:495 nm emission ratio was calculated and used to determine the IC50 value from a dose response curve fit to the 4-parameter logistic equation.

[2] = molecular target: His6-ERα298-554 Y537S mutant (ERα ligand-binding domain) (Homo sapiens (Human), UniProt P03372, Y537S); assay: Test A: biochemical antagonist activity, LanthaScreen TR-FRET ERα coactivator assay, Y537S mutant; conditions: protocol with 3 nM estradiol; read-out: Antagonism Y537S IC50
Sequence of His6-ERα298-554 Y537S mutant (ERα ligand-binding domain) (P03372 298-554 Y537S): as the sequence (P03372 298-554 D538G) above, with Y240S, G241D counted along it
Description: as §1, §2, §3, §4

[3] = molecular target: His6-ERα298-554 WT (ERα ligand-binding domain) (Homo sapiens (Human), UniProt P03372); assay: Test A: biochemical antagonist activity, LanthaScreen TR-FRET ERα coactivator assay, WT; conditions: protocol with 3 nM estradiol; read-out: Antagonism WT IC50
Sequence of His6-ERα298-554 WT (ERα ligand-binding domain) (P03372 298-554): as the sequence (P03372 298-554 D538G) above, with G241D counted along it
Description: as §1, §2, §3, §4

ERα in MCF7 cells = ERα in MCF7 cells (Homo sapiens (Human), UniProt P03372); assay: Test C: estrogen receptor degradation activity, ERα in cell western assay in MCF7 cells; format: cell-based; conditions: for DC50: 4 hours post compound addition, ERα in cell western, read-out: Degradation IC50; for % Degradation at 3 μM: 4 hours, relative to fulvestrant
Sequence of ERα in MCF7 cells (P03372 whole entry): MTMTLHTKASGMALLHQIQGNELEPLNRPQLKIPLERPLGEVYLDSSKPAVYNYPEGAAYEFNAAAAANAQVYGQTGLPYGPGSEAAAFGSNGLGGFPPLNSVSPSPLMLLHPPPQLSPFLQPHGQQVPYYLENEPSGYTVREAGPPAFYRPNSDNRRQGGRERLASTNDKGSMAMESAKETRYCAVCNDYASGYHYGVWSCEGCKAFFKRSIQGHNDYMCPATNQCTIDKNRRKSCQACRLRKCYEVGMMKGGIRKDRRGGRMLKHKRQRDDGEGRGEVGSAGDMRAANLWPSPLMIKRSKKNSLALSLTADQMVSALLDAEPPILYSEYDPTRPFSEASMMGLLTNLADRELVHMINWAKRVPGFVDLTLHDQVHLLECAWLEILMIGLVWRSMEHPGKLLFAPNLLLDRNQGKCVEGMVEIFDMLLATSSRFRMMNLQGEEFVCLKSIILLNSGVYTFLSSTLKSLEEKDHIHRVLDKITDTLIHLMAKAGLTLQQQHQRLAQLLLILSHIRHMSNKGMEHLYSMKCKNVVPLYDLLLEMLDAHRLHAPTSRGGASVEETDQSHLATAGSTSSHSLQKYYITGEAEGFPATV
Description: Test C: Estrogen Receptor Degradation Activity
Test C involves measuring the in vitro degradation activity of the compounds of the invention.
The measurements of the degradation activities were made using abreast cancer cell ERα in cell western assay as described hereunder.
MCF7 cells (ATCC) were seeded in 384 wells microplate (collagen coated) at concentration of >9990 cells/30 μL per well in red phenol free MEM alpha medium (invitrogen) containing 5% charcoal dextran striped FBS. The following day, 9 points serial 1:5 dilution of each compound were added to the cells in 2.5 μL at final concentrations ranging from 3-0.000018 μM or 0.1 μM for fulvestrant (using as positive control). At 4 hours post compounds addition the cells were fixed by adding 25 μL of formalin (final concentration 5% formalin containing 0.1% triton) for 10 minutes at room temperature and then washed twice with PBS. Then, 50 μL of LI-COR blocking buffer containing 0.1% Triton was added to plate for 30 minutes at room temperature. LI-COR blocking buffer was removed and cells were incubated overnight at cold room with 50 μL anti-ER rabbit monoclonal antibody (Thermo scientific MA1-39540) diluted at 1:>999 in LI-COR blocking buffer containing 0.1% tween-20. Wells which were treated with blocking but no antibody were used as background control. Wells were washed twice with PBS (0.1% tween-20) and incubated at 37° C. for 60 minutes in LI-COR (0.1% tween-20) containing goat anti-rabbit antibody Alexa 488 (1:>999) and Syto-64 a DNA dye (2 μM final concentration). Cells were then washed 3 times in PBS and scanned in ACUMEN explorer (TTP-Labtech). Integrated intensities in the green fluorescence and red fluorescence were measured to determine the levels of ERα and DNA respectively.

Row | Compound | IC50 [1] [nM] | IC50 [2] [nM] | IC50 [3] [nM] | DC50 (ERα in MCF7 cells) [nM] | % Degradation at 3 μM (ERα in MCF7 cells) [%]
1 | Oc1ccc2c(c1)SCCC(c1ccc3[nH]ccc3c1)=C2c1ccc(O[C@H]2CCN(CCCF)C2)cc1 [Example 160, 5-[4-[(3S)-1-(3-fluoropropyl)pyrrolidin-3-yl]oxyphenyl]-4-(1H-indol-5-yl)-2,3-dihydro-1-benzothiepin-8-ol] | 13 | 8 | 3 | 0.2 | 75
2 | Oc1ccc2c(c1)C(c1ccc(O[C@H]3CCN(CCCF)C3)cc1)=C(c1ccc(F)cc1Cl)CCS2 [Example 175, 4-(2-chloro-4-fluoro-phenyl)-5-[4-[(3S)-1-(3-fluoropropyl)pyrrolidin-3-yl]oxyphenyl]-2,3-dihydro-1-benzothiepin-7-ol] | 116 | 65 | 20 | 0.3 | 83
3 | Cc1c(O)ccc2c1OCCC(c1ccc3c(c1)CCN3)=C2c1ccc(O[C@H]2CCN(CCCF)C2)cc1 [Example 118, 5-[4-[(3S)-1-(3-fluoropropyl)pyrrolidin-3-yl]oxyphenyl]-4-indolin-5-yl-9-methyl-2,3-dihydro-1-benzoxepin-8-ol] | 442 | 237 | 152 | 126 | 74
4 | Oc1ccc2c(c1F)OCCC(c1cccc3[nH]ccc13)=C2c1ccc(O[C@H]2CCN(CCCF)C2)cc1 [Example 133, 9-fluoro-5-[4-[(3S)-1-(3-fluoropropyl)pyrrolidin-3-yl]oxyphenyl]-4-(1H-indol-4-yl)-2,3-dihydro-1-benzoxepin-8-ol] | 64 | 39 | 4 | 2 | 83
5 | Cc1c(Cl)cccc1C1=C(c2ccc(O[C@H]3CCN(CCCF)C3)cc2)c2cc(O)ccc2SCC1 [Example 173, 4-(3-chloro-2-methyl-phenyl)-5-[4-[(3S)-1-(3-fluoropropyl)pyrrolidin-3-yl]oxyphenyl]-2,3-dihydro-1-benzothiepin-7-ol] | 145 | 87 | 21 | 4 | 82
6 | Oc1ccc(C2=C(c3ccc(O[C@H]4CCN(CCCF)C4)cc3)c3ccc(O)cc3OCC2)c(F)c1 [Example 94, 4-(2-fluoro-4-hydroxy-phenyl)-5-[4-[(3S)-1-(3-fluoropropyl)pyrrolidin-3-yl]oxyphenyl]-2,3-dihydro-1-benzoxepin-8-ol] | 10 | 6 | 2 | 0.2 | 87
7 | Oc1ccc2c(c1)SCCC(c1ccc(F)cc1Cl)=C2c1ccc(O[C@H]2CCN(CCCF)C2)cc1 [Example 159, 4-(2-chloro-4-fluoro-phenyl)-5-[4-[(3S)-1-(3-fluoropropyl)pyrrolidin-3-yl]oxyphenyl]-2,3-dihydro-1-benzothiepin-8-ol] | 17 | 10 | 3 | 0.5 | 89
8 | Oc1ccc2c(c1)OCCC(c1cccc3c1CCN3)=C2c1ccc(O[C@H]2CCN(CCCF)C2)cc1 [Example 117, 5-[4-[(3S)-1-(3-fluoropropyl)pyrrolidin-3-yl]oxyphenyl]-4-indolin-4-yl-2,3-dihydro-1-benzoxepin-8-ol] | 309 | 214 | 32 | 3 | 92
9 | Oc1ccc2c(c1Cl)OCCC(c1cccc3c1CCN3)=C2c1ccc(O[C@H]2CCN(CCCF)C2)cc1 [Example 128, 9-chloro-5-[4-[(3S)-1-(3-fluoropropyl)pyrrolidin-3-yl]oxyphenyl]-4-indolin-4-yl-2,3-dihydro-1-benzoxepin-8-ol] | 1210 | 933 | 96 | 14 | 72
10 | Oc1ccc2c(c1Cl)OCCC(c1ccc3[nH]ccc3c1)=C2c1ccc(O[C@H]2CCN(CCCF)C2)cc1 [Example 114, 9-chloro-5-[4-[(3S)-1-(3-fluoropropyl)pyrrolidin-3-yl]oxyphenyl]-4-(1H-indol-5-yl)-2,3-dihydro-1-benzoxepin-8-ol] | 178 | 104 | 29 | 5 | 71
11 | Oc1ccc2c(c1)C(c1ccc(O[C@H]3CCN(CCCF)C3)cc1)=C(c1ccc(F)c(Cl)c1)CCS2 [Example 174, 4-(3-chloro-4-fluoro-phenyl)-5-[4-[(3S)-1-(3-fluoropropyl)pyrrolidin-3-yl]oxyphenyl]-2,3-dihydro-1-benzothiepin-7-ol] | 422 | 222 | 53 | 4 | 81
12 | Oc1ccc2c(c1)OCCC(c1ccc3c(c1)CCN3)=C2c1ccc(O[C@H]2CCN(CCCF)C2)cc1 [Example 104, 5-[4-[(3S)-1-(3-fluoropropyl)pyrrolidin-3-yl]oxyphenyl]-4-indolin-5-yl-2,3-dihydro-1-benzoxepin-8-ol] | 54 | 23 | 12 | 0.2 | 88
13 | Cc1ccc(C2=C(c3ccc(O[C@H]4CCN(CCCF)C4)cc3)c3ccc(O)c(C)c3OCC2)c(F)c1 [Example 111, 4-(2-fluoro-4-methyl-phenyl)-5-[4-[(3S)-1-(3-fluoropropyl)pyrrolidin-3-yl]oxyphenyl]-9-methyl-2,3-dihydro-1-benzoxepin-8-ol] | 822 | 407 | 91 | 6 | 86
14 | Cc1cc(C2=C(c3ccc(O[C@H]4CCN(CCCF)C4)cc3)c3cc(O)ccc3SCC2)ccc1Cl [Example 179, 4-(4-chloro-3-methyl-phenyl)-5-[4-[(3S)-1-(3-fluoropropyl)pyrrolidin-3-yl]oxyphenyl]-2,3-dihydro-1-benzothiepin-7-ol] | 114 | 80 | 12 | 4 | 80
15 | Oc1ccc2c(c1)SCC(c1ccc(F)cc1Cl)=C2c1ccc(O[C@H]2CCN(CCCF)C2)cc1 [Example 22, 3-(2-chloro-4-fluoro-phenyl)-4-[4-[(3S)-1-(3-fluoropropyl)pyrrolidin-3-yl]oxyphenyl]-2H-thiochromen-7-ol] | 27 | 9 | 6 | 1 | 95
16 | Oc1ccc2c(c1)SCCC(c1ccc(Cl)cc1F)=C2c1ccc(O[C@H]2CCN(CCCF)C2)cc1 [Example 167, 4-(4-chloro-2-fluoro-phenyl)-5-[4-[(3S)-1-(3-fluoropropyl)pyrrolidin-3-yl]oxyphenyl]-2,3-dihydro-1-benzothiepin-8-ol] | 26 | 16 | 5 | 0.5 | 87
17 | Oc1ccc2c(c1)SCC(c1ccc3[nH]ccc3c1)=C2c1ccc(O[C@H]2CCN(CCCF)C2)cc1 [Example 19, 4-[4-[(3S)-1-(3-fluoropropyl)pyrrolidin-3-yl]oxyphenyl]-3-(1H-indol-5-yl)-2H-thiochromen-7-ol] | 23 | 11 | 7 | 3 | 78
18 | Oc1ccc2c(c1)OCCC(c1cccc(F)c1Cl)=C2c1ccc(O[C@H]2CCN(CCCF)C2)cc1 [Example 95, 4-(2-chloro-3-fluoro-phenyl)-5-[4-[(3S)-1-(3-fluoropropyl)pyrrolidin-3-yl]oxyphenyl]-2,3-dihydro-1-benzoxepin-8-ol] | 43 | 20 | 6 | 0.2 | 93
